This passage reports IC50 results from patent publication US7973061B2, “Anaplastic lymphoma kinase modulators and methods of use” (Exelixis, Inc., priority 2004, dated 2011).

T1 sequence (Q9UM73 1098-1410): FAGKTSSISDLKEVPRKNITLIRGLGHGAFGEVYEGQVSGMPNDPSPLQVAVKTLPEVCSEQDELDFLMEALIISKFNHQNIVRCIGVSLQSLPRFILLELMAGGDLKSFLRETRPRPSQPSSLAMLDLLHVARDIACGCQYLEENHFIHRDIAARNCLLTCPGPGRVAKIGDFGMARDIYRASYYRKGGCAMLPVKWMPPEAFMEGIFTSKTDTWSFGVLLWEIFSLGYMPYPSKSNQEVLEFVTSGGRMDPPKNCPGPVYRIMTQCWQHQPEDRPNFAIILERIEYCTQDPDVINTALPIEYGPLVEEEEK

The experiment has as its target T1, ALK (baculovirus expressed human ALK kinase domain F1098-K1410) (Homo sapiens, UniProt Q9UM73).
T1 construct: human ALK kinase domain F1098-K1410; made in house
In words: biochemical. Conditions: 1 μM ATP, 4 μM poly-AEKY, 12 nM ALK, 2 hours at ambient temperature; read-out: ALK IC50. The method, then:
Kinase activity and compound inhibition are investigated using one or more of the three assay formats described below. The ATP concentrations for each assay are selected to be close to the Michaelis-Menten constant (KM) for each individual kinase. Dose-response experiments are performed at 10 different inhibitor concentrations in a 384-well plate format. […] Y=Min+(Max−Min)/(1+(X/IC50)^H) Equation (2) Luciferase-Coupled Chemiluminescent Kinase Assay
ALK biochemical activity was assessed using a Luciferase-Coupled Chemiluminescent Kinase assay (LCCA) format in which kinase activity was measured as the percent ATP remaining following the kinase reaction. ATP remaining after the kinase reaction was detected by luciferase-luciferin-coupled chemiluminescence. […] The mixture was incubated at ambient temperature for 2 hours after which 20 μL luciferase-luciferin mix was added and the chemiluminescent signal read using a Wallac Victor^2 reader. […] Consumption of ATP by ALK can be quantified and utilized as a measure of inhibition of ALK activity by compounds described herein. By employing serial dilutions of compounds to be tested, the ability of test compounds to inhibit ALK activity can be determined.
Usually IC50 stands for the concentration that inhibits the measured activity by half. On to `CSc1ccccc1CNC(=O)c1csc(CNC(=O)COc2ccc(OC(F)(F)F)cc2)n1` [Entry 41, N-{[2-(methylthio)phenyl]methyl}-2-({[({4-[(trifluoromethyl)oxy]phenyl}oxy)acetyl]amino}methyl)-1,3-thiazole-4-carboxamide], for which the IC50 lay within 50 to 500 nM.
As for `COc1cccc(CNC(=O)c2csc(CNC(=O)COc3ccc(OC(F)(F)F)cc3)n2)c1OC` [Entry 11, N-{[2,3-bis(methyloxy)phenyl]methyl}-2-({[({4-[(trifluoromethyl)oxy]phenyl}oxy)acetyl]amino}methyl)-1,3-thiazole-4-carboxamide], the IC50 was under 50 nM.
Regarding `O=C(COc1ccc(OC(F)(F)F)cc1)NCc1nc(C(=O)NCCc2ccc(F)cc2)cs1` [Entry 24, N-[2-(4-fluorophenyl)ethyl]-2-({[({4-[(trifluoromethyl)oxy]phenyl}oxy)acetyl]amino}methyl)-1,3-thiazole-4-carboxamide], the IC50 was under 50 nM.
For `O=C(COc1cccc(Cl)c1)NCc1nc(C(=O)NCCc2cccc(Cl)c2)cs1` [Entry 161, N-[2-(3-chlorophenyl)ethyl]-2-[({[(3-chlorophenyl)oxy]acetyl}amino)methyl]-1,3-thiazole-4-carboxamide], the IC50 is 50 to 500 nM.
Regarding `CCCCCCC(C)NC(=O)c1csc(CNC(=O)COc2ccc(OC(F)(F)F)cc2)n1` (centres unmarked) [Entry 220, N-(1-methylheptyl)-2-({[({4-[(trifluoromethyl)oxy]phenyl}oxy)acetyl]amino}methyl)-1,3-thiazole-4-carboxamide], the IC50 lay in the range of 500 to 2000 nM.
On to `O=C(COc1ccc(Br)cc1)NCc1nc(C(=O)NCCc2ccccc2F)cs1` [Entry 239, 2-[({[(4-bromophenyl)oxy]acetyl}amino)methyl]-N-[2-(2-fluorophenyl)ethyl]-1,3-thiazole-4-carboxamide], for which the IC50 lay in the range of 500 to 2000 nM.
As to `C[C@H](NC(=O)c1coc(CNC(=O)COc2ccc(OC(F)(F)F)cc2)n1)C1CCCCC1` [Entry 264, N-[(1S)-1-cyclohexylethyl]-2-({[({4-[(trifluoromethyl)oxy]phenyl}oxy)acetyl]amino}methyl)-1,3-oxazole-4-carboxamide], the IC50 is 500 to 2000 nM.
Regarding `CN(C)Cc1ccc(CSCCNC(=O)c2csc(CNC(=O)COc3ccc(OC(F)(F)F)cc3)n2)o1` [Entry 130, N-{2-[({5-[(dimethylamino)methyl]furan-2-yl}methyl)thio]ethyl}-2-({[({4-[(trifluoromethyl)oxy]phenyl}oxy)acetyl]amino}methyl)-1,3-thiazole-4-carboxamide], the IC50 fell in the range of 50 to 500 nM.
The value for `CC(C)c1ccc(CC(=O)NCc2nc(C(=O)NCCc3cccc(Cl)c3)cs2)cc1` [Entry 50, N-[2-(3-chlorophenyl)ethyl]-2-[({[4-(1-methylethyl)phenyl]acetyl}amino)methyl]-1,3-thiazole-4-carboxamide] was 50 to 500 nM.
As for `O=C(COc1ccc(OC(F)(F)F)cc1)NCc1nc(C(=O)NCCc2ccccn2)co1` [Entry 296, N-(2-pyridin-2-ylethyl)-2-({[({4-[(trifluoromethyl)oxy]phenyl}oxy)acetyl]amino}methyl)-1,3-oxazole-4-carboxamide], the IC50 was 500 to 2000 nM.
On to `O=C(COc1ccc(OC(F)(F)F)cc1)NCc1nc(C(=O)NCCc2ccc(Cl)c(Cl)c2)cs1` [Entry 44, N-[2-(3,4-dichlorophenyl)ethyl]-2-({[({4-[(trifluoromethyl)oxy]phenyl}oxy)acetyl]amino}methyl)-1,3-thiazole-4-carboxamide], for which the half-inhibitory concentration (IC50) fell in the range of 50 to 500 nM.
For the molecule `O=C(COc1ccc(OC(F)(F)F)cc1)NCc1nc(C(=O)NCc2cccc(C(F)(F)F)c2)cs1` [Entry 156, 2-({[({4-[(trifluoromethyl)oxy]phenyl}oxy)acetyl]amino}methyl)-N-{[3-(trifluoromethyl)phenyl]methyl}-1,3-thiazole-4-carboxamide], the IC50 is 50 to 500 nM.
On to `C[C@H](CNC(=O)c1csc(CNC(=O)COc2ccc(OC(F)(F)F)cc2)n1)c1ccccc1` [Entry 26, N-[(2S)-2-phenylpropyl]-2-({[({4-[(trifluoromethyl)oxy]phenyl}oxy)acetyl]amino}methyl)-1,3-thiazole-4-carboxamide], for which the IC50 is under 50 nM.
With `CCOc1cccc(CCNC(=O)c2coc(CNC(=O)COc3ccc(OC(F)(F)F)cc3)n2)c1` [Entry 230, N-{2-[3-(ethyloxy)phenyl]ethyl}-2-({[({4-[(trifluoromethyl)oxy]phenyl}oxy)acetyl]amino}methyl)-1,3-oxazole-4-carboxamide], the IC50 was 500 to 2000 nM.
Regarding `CCOc1ccc(CCNC(=O)c2csc(CNC(=O)COc3ccc(OC(F)(F)F)cc3)n2)cc1` [Entry 68, N-{2-[4-(ethyloxy)phenyl]ethyl}-2-({[({4-[(trifluoromethyl)oxy]phenyl}oxy)acetyl]amino}methyl)-1,3-thiazole-4-carboxamide], the 50% inhibitory concentration (IC50) lay within 50 to 500 nM.
Consider `O=C(COc1ccc(OC(F)(F)F)cc1)NCc1nc(C(=O)NCc2ccccc2C(F)(F)F)cs1` [Entry 63, 2-({[({4-[(trifluoromethyl)oxy]phenyl}oxy)acetyl]amino}methyl)-N-{[2-(trifluoromethyl)phenyl]methyl}-1,3-thiazole-4-carboxamide], for which the IC50 fell in the range of 50 to 500 nM.
For `O=C(COc1ccc(OC(F)(F)F)cc1)NCc1nc(C(=O)NCCc2cccnc2)cs1` [Entry 51, N-(2-pyridin-3-ylethyl)-2-({[({4-[(trifluoromethyl)oxy]phenyl}oxy)acetyl]amino}methyl)-1,3-thiazole-4-carboxamide], the IC50 was 50 to 500 nM.
As for `C[C@@H]1[C@H]2C[C@@H](C[C@H]1NC(=O)c1csc(CNC(=O)COc3ccc(OC(F)(F)F)cc3)n1)C2(C)C` [Entry 88, 2-({[({4-[(trifluoromethyl)oxy]phenyl}oxy)acetyl]amino}methyl)-N-[(1R,2R,3R,5S)-2,6,6-trimethylbicyclo[3.1.1]hept-3-yl]-1,3-thiazole-4-carboxamide], the IC50 was in the range of 50 to 500 nM.
As to `O=C(COc1ccc(OC(F)(F)F)cc1)NCc1nc(C(=O)NCc2cc(Cl)cc(Cl)c2)cs1` [Entry 69, N-[(3,5-dichlorophenyl)methyl]-2-({[({4-[(trifluoromethyl)oxy]phenyl}oxy)acetyl]amino}methyl)-1,3-thiazole-4-carboxamide], the IC50 lay within 50 to 500 nM.
In the case of `Cc1ccc(NC(=O)NCc2nc(C(=O)NCCc3cccc(Cl)c3)cs2)cc1` [Entry 168, N-[2-(3-chlorophenyl)ethyl]-2-[({[(4-methylphenyl)amino]carbonyl}amino)methyl]-1,3-thiazole-4-carboxamide], the half-maximal inhibitory concentration (IC50) lay within 50 to 500 nM.
With `O=C(COc1ccc(OC(F)(F)F)cc1)NCc1nc(C(=O)NCCc2cccs2)co1` [Entry 159, N-[2-(2-thienyl)ethyl]-2-({[({4-[(trifluoromethyl)oxy]phenyl}oxy)acetyl]amino}methyl)-1,3-oxazole-4-carboxamide], the IC50 is 50 to 500 nM.
Turning to `O=C(COc1ccc(OC(F)(F)F)cc1)NCc1nc(C(=O)NCc2ccccc2)co1` [Entry 297, N-(phenylmethyl)-2-({[({4-[(trifluoromethyl)oxy]phenyl}oxy)acetyl]amino}methyl)-1,3-oxazole-4-carboxamide], the IC50 fell in the range of 500 to 2000 nM.
The result for `CCOc1ccccc1CCNC(=O)c1csc(CNC(=O)COc2ccc(OC(F)(F)F)cc2)n1` [Entry 60, N-{2-[2-(ethyloxy)phenyl]ethyl}-2-({[({4-[(trifluoromethyl)oxy]phenyl}oxy)acetyl]amino}methyl)-1,3-thiazole-4-carboxamide] reads 50 to 500 nM; that for `Cc1ccc(N2CCN(C(=O)c3csc(CNC(=O)COc4ccc(OC(F)(F)F)cc4)n3)CC2C)cc1` (centres unmarked) [Entry 243, N-[(4-{[3-methyl-4-(4-methylphenyl)piperazin-1-yl]carbonyl}-1,3-thiazol-2-yl)methyl]-2-({4-[(trifluoromethyl)oxy]phenyl}oxy)acetamide], 500 to 2000 nM.
Consider `CCCC1CCN(C(=O)c2csc(CNC(=O)COc3ccc(OC(F)(F)F)cc3)n2)CC1` [Entry 245, N-({4-[(4-propylpiperidin-1-yl)carbonyl]-1,3-thiazol-2-yl}methyl)-2-({4-[(trifluoromethyl)oxy]phenyl}oxy)acetamide], for which the IC50 lay in the range of 500 to 2000 nM.
In the case of `COc1ccccc1CNC(=O)c1csc(CNC(=O)COc2ccc(Cl)cc2)n1` [Entry 263, 2-[({[(4-chlorophenyl)oxy]acetyl}amino)methyl]-N-{[2-(methyloxy)phenyl]methyl}-1,3-thiazole-4-carboxamide], the IC50 was in the range of 500 to 2000 nM.
Consider `O=C(COc1ccc(OC(F)(F)F)cc1)NCc1nc(C(=O)NCCc2c[nH]c3ccccc23)co1` [Entry 251, N-[2-(1H-indol-3-yl)ethyl]-2-({[({4-[(trifluoromethyl)oxy]phenyl}oxy)acetyl]amino}methyl)-1,3-oxazole-4-carboxamide], for which the IC50 was in the range of 500 to 2000 nM.
For `COc1ccccc1CNC(=O)c1csc(CNC(=O)COc2ccc(I)cc2)n1` [Entry 82, 2-[({[(4-iodophenyl)oxy]acetyl}amino)methyl]-N-{[2-(methyloxy)phenyl]methyl}-1,3-thiazole-4-carboxamide], the IC50 fell in the range of 50 to 500 nM.
With `COc1ccccc1CNC(=O)c1csc(CNC(=O)COc2ccc(C(C)C)cc2)n1` [Entry 118, 2-{[({[4-(1-methylethyl)phenyl]oxy}acetyl)amino]methyl}-N-{[2-(methyloxy)phenyl]methyl}-1,3-thiazole-4-carboxamide], the IC50 is 50 to 500 nM.
